Assay results taken from the SangsterLogP compilation.

Assays:
[1] = method code SF-HPLC, from DOI: 10.1023/a:1007522626070, PMID: 10714611; conditions: pH 7.4
[2] = method code SF-RC, from Lázníček, M., Waisser, K., Květina, J., Beňo, P., & Tichý, M. (1985). QSAR methods in pharmacokinetic analysis. QSAR in Toxicology and Xenobiochemistry, 249-256.; conditions: pH 1.0
[3] = method code SF, from DOI: 10.1246/bcsj.60.4357
[4] = method code SF-AS, from DOI: 10.1016/0039-9140(66)80126-1, PMID: 18959847; conditions: pH 7.5
[5] = method code SF-RC, from DOI: 10.1002/jlcr.1525
[6] = method code SF-AS, from DOI: 10.1016/s0378-5173(98)00405-0, PMID: 10089287; conditions: pH 7.4
[7] = method code SF-AS, from DOI: 10.1002/jhrc.1240040906; conditions: pH 5.0
[8] = method code SF-AS, from DOI: 10.1021/jm00297a026, PMID: 5441130
[9] = not given; remark: listed apart in the source
[10] = not given; remark: listed apart in the source
[11] = pH 4.3
[12] = method code SF-RC, from DOI: 10.1016/j.apradiso.2013.03.021, PMID: 23602704; conditions: pH 7.4
[13] = method code SF-AS, from DOI: 10.1016/0009-2797(77)90097-7, PMID: 407012; conditions: pH 7.0
[14] = not given; remark: listed apart in the source
[15] = method code SF-AS, from DOI: 10.1016/0378-5173(82)90005-9; conditions: pH 3.0
[16] = method code SF-ESR, from DOI: 10.1111/1523-1747.ep12319780, PMID: 2551971; conditions: pH 7.0
[17] = method code SF, from DOI: 10.1021/ac00105a018
[18] = method code SF-HPLC, from DOI: 10.1002/ps.2780130506
[19] = method code SF-HPLC, from DOI: 10.1021/jm701549s, PMID: 18558667; conditions: pH 7.4
[20] = method code SF-AS, from DOI: 10.1271/bbb1961.46.2755
[21] = method code SF-CR+AS, from Korenman, I.; Tishchenko, M.; Kombarova, A. (1977). Distribution of dihydroxynaphthalenes between higher alcohols and water. Zh. Prikl. Khim., 50(4)899-901.; conditions: pH 2.0
[22] = not given; remark: listed apart in the source
[23] = method code SF-AS, from DOI: 10.1002/chin.198419165, PMID: 6653771; conditions: pH 2.5
[24] = not given; remark: listed apart in the source
[25] = method code SF, from Korenman, I.; Polumestnaya, I. (1982). Principles of interfacial distribution of certain substituted naphthalenes. Zh. Prikl. Khim., 55(2)364-367.
[26] = method code …, from Korenman, I.; Polumestnaya, I.; Mezentseva, P. (1979). Investigations of the relationship of extraction of 1-naphthol and some of its derivatives by the method of correlation equations. Zh. Prikl. …; conditions: pH 2.0
[27] = not given; remark: listed apart in the source
[28] = not given; remark: listed apart in the source
[29] = method code SF, from DOI: 10.1023/a:1018952108327, PMID: 7855051; conditions: pH 5.0
[30] = method code SF-RC, from DOI: 10.1016/0006-2952(75)90159-8, PMID: 1168477
[31] = method code SF-HPLC, from DOI: 10.1016/0378-5173(85)90011-0
[32] = method code SF-AS, from DOI: 10.1016/0005-2744(69)90103-x, PMID: 4387594
[33] = method code SF-AS, from DOI: 10.1248/cpb.36.1393; conditions: pH 7.4
[34] = method code SF-AS, from PMID: 6692390; conditions: pH 4.0
[35] = method code SF-HPLC, from DOI: 10.1111/j.2042-7158.1995.tb05807.x, PMID: 7791035; conditions: pH 7.0
[36] = not given; remark: listed apart in the source
[37] = method code SF-AS, from DOI: 10.1081/jlc-100100410; conditions: pH 4.0
[38] = method code SF-CR+AS, from Korenman, I.; Lineva, S.; Gezikova, N. (1978). Extraction of naphthol-sulfonic acids from aqueous solution. Zh. Prikl. Khim., 51(4)869-871.
[39] = method code SF-AS, from DOI: 10.1016/s0006-2952(02)01074-2, PMID: 12392818; conditions: pH 7.4
[40] = method code SF-HPLC, from DOI: 10.1248/bpb.16.154, PMID: 8364451
[41] = not given; remark: listed apart in the source
[42] = method code SF-AS, from DOI: 10.1248/cpb.39.1217
[43] = method code SF-AS, from Korenman, Y.; Pazynin, T. (1972). Distribution of nitrosonaphthols between organic solvents and water. J. anal. chem. USSR, 27(4)723-725.; conditions: pH 2.0
[44] = method code SF, from DOI: 10.1021/jm00002a007, PMID: 7830268
[45] = method code SF-HPLC, from DOI: 10.1016/0378-5173(84)90193-5; conditions: pH 4.0
[46] = method code SF-AS, from DOI: 10.1002/jps.2600711105; conditions: pH 7.4
[47] = not given; remark: listed apart in the source
[48] = method code SF-GLC, from DOI: 10.1016/j.chemosphere.2004.08.061, PMID: 15519382

## CCn1nnc(C2=CCC[N+](C)([O-])C2)n1 (centres undefined)
[1]
  logD: -1.5

## O=C(O)CCc1ccccc1I
[2]
  logD: 2.47

## Clc1ccc2ccccc2c1
other
  logP: 4.07

## CC(C)c1cc([N+](=O)[O-])cc([N+](=O)[O-])c1O
[3]
  logP: 3.1

## Cc1ccc2cccc(O)c2n1
[4]
  logD: 2.33

## O=C(O)CN(CCN1CCN=C1[N+](=O)[O-])CC(=O)O
[5]
  logP: -0.82

## Cc1cc(=O)n2ccccc2n1
[6]
  logD: 0.6

## NC(=O)c1cnc2n(c1=O)CCCC2
[7]
  logD: -0.38

## CCCCn1cnc2c(N)ncnc21
[8]
  logP: 1.25

## NC1CC1c1ccccc1 (centres undefined)
[9]
  logP: 1.49

## COC(=O)Nc1nc2ccccc2[nH]1
[10]
  logP: 1.75

## Nc1ccc(S(=O)(=O)Nc2ncccn2)cc1
[11]
  logD: -0.04

## Nc1nc(=O)n([C@H]2C[C@H](O)[C@@H](CO)O2)cc1I
[12]
  logD: -0.94

## CN(C)c1nc(N(C)C)nc(N(C)O)n1
[13]
  logD: 1.61

## O=c1[nH]c(-c2ccccc2)nc2nn[nH]c12
[14]
  logP: 1.27

## O=C1NC(=S)NC(=O)C12CCCCC2
[15]
  logD: 1.78

## CC1(C)CCC(C)(C)N1[O]
[16]
  logD: 1

## CCCc1ccc(O)cc1
[17]
  logP: 3

## CNC(=O)ON=Cc1ccc(Cl)c(Cl)c1
[18]
  logP: 2.89

## CN(C)C(=O)c1ccc(Br)cc1
[19]
  logD: 1.83

## O=C1COC(=O)N1c1ccccc1
[20]
  logP: 0.93

## Oc1cc(O)c2ccccc2c1
[21]
  logD: 1.97

## Clc1ccc2ccc(Cl)cc2c1
[22]
  logP: 4.81

## O=C(O)c1ccccc1NCCO
[23]
  logD: 1.16

## Cn1c(C(F)(F)F)nc2ccccc21
[24]
  logP: 3.98

## O=S(=O)(O)c1cc(O)c2ccccc2c1
[25]
  logP: -0.18

## O=Nc1c(Br)cc2ccccc2c1O
[26]
  logD: 2.93

## OC[C@@H]1C[C@@H](F)[C@H](n2cnc3c(F)ncnc32)O1
[27]
  logP: 0.06

## CC(=O)Nc1ccc(OC(=O)CBr)cc1
[28]
  logP: 1.08

## CN1C(CCl)Nc2cc(Cl)c(S(N)(=O)=O)cc2S1(=O)=O (centres undefined)
[29]
  logD: 0.6

## CCCN(C(C)=O)C(C)C
[30]
  logP: 1.48

## CCCC(=O)n1ncc2c(=O)[nH]cnc21
[31]
  logP: 0.85

## CCCNc1ccccc1
[32]
  logP: 2.45

## [O-][n+]1ccc(Cl)c2ccc(Cl)cc21
[33]
  logD: 1.85

## COc1ccc(NC(=O)N(C)N=O)cc1
[34]
  logD: 0.64

## NC(=O)NC(=O)Cc1ccccc1
[35]
  logD: 0.66

## CCCCC1C(=O)NC(=O)N(C)C1=O (centres undefined)
[36]
  logP: 1.1

## Nc1ccc(S(=O)(=O)Nc2ccc(Cl)nn2)cc1
[37]
  logD: 0.86

## O=S(=O)(O)c1cccc2c(O)cccc12
[38]
  logP: -0.17

## OC1CCOc2ccccc21 (centres undefined)
[39]
  logD: 1.31

## O=C(O)CNC(=O)c1cc(O)ccc1O
[40]
  logP: 0.28

## Nc1ccc([N+](=O)[O-])c2ccccc12
[41]
  logP: 1.77

## Cc1nccnc1CC(C)C
[42]
  logP: 1.96

## O=Nc1c(O)ccc2ccccc12
[43]
  logD: 2.28

## CCOP(=O)(OCC)C1(C)CCC=[N+]1[O-] (centres undefined)
[44]
  logP: -1.22

## O=c1[nH]cc(F)c(=O)n1Oc1ccccc1
[45]
  logD: 0.8

## CC(=O)c1nc([N+](=O)[O-])n(CC(C)O)c1C (centres undefined)
[46]
  logD: 0.37

## ClC1=C(Cl)C2(Cl)C3C(Cl)C=CC3C1(Cl)C2(Cl)Cl (centres undefined)
[47]
  logP: 5.58

## Cn1c(Cl)c(Br)c(Cl)c1-c1c(Br)c(Br)c(Cl)n1C
[48]
  logP: 6.5
